In PubChem BioAssay (NCI) one finds TGI data, which are given here for 13 molecules.

Among the test systems are A549 NSCLC; CAKI-1 renal; M19-MEL melanoma; MOLT-4 leukemia; NCI-H226 lung; NCI-H460 lung; SK-OV-3 ovarian; SNB-78 CNS; UO-31 renal; HS 578T breast; M14 melanoma.
Common to all, as to assay: NCI tumour cell line growth inhibition, 48 h

“And” between values parts separate entries of the source, which are not always exact repeats. Equal entries are not always repeated.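 In this assay, cells in 96-well plates receive the compound at five concentrations for 48 hours. Endpoints are linearly interpolated between the surrounding concentrations. TGI denotes the concentration required for complete inhibition of growth.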 *1 amine or outer side, *2 acyl side, *3 side chain or, on linkers, in order; H or OH if unused. Where a SMILES comes first, the peptide text is derived from it. Bridges are numbered along the chain shown (N, C = ends). Roman numbers before positions name the chains, in order. [ ]: non-standard residue; d: D form. Actinocin(9to1) = Cc1c2oc3c(C)ccc(C(=O)[*:1])c3nc-2c(C(=O)[*:2])c(N)c1=O; Hyp = O=C(O)[CH]1C[CH](O)CN1; NMeV = CN[CH](C(=O)O)C(C)C; Sar = CNCC(=O)O

As to `COC(=O)[C@]1(c2ccc(N(C)C)cc2OC)C[C@@H]2CCCN(CCc3c1[nH]c1ccccc31)C2`, the TGI in the experiment with A549 NSCLC is more than 65.5 µM; in the experiment on CAKI-1 renal, more than 100 µM; with M19-MEL melanoma, 32.8 µM; with MOLT-4 leukemia, more than 91.4 µM; in the experiment on NCI-H226 lung, 37.6 µM; in the experiment on NCI-H460 lung, 33.7 µM. Besides, the TGI in the experiment with SK-OV-3 ovarian was more than 61.4 µM; in the experiment with SNB-78 CNS it was more than 91.1 µM; in the experiment with UO-31 renal, 33.2 µM.
For `COC1=C(C)C(=O)C2=C(C1=O)C1C3CC4=C(C(=O)C(OC)=C(C)C4=O)C(CNC(=O)C(C)O)N3C(C#N)C(C2)N1C` (centres undefined), the TGI is 2 µM in the experiment on CAKI-1 renal; less than 0.01 µM in the experiment on HS 578T breast; 0.0173 µM with M14 melanoma; less than 0.01 µM in the experiment with M19-MEL melanoma; less than 0.215 µM in the experiment on MOLT-4 leukemia; 0.109 µM with NCI-H226 lung. Besides, the TGI stood at 0.179 µM with NCI-H460 lung, 1.2 µM in the experiment on SK-OV-3 ovarian, 0.0863 µM with SNB-78 CNS and 0.731 µM with UO-31 renal.
Take `COc1cc2c(cc1Oc1c(Oc3c(O)c(OC)cc4c3C(CC(C)C)N(C)CC4)c(OC)cc3c1C(CC(C)C)N(C)CC3)C(CC(C)C)N(C)CC2` (centres undefined): the TGI is 6.39 µM in the experiment on A549 NSCLC; 4.5 µM with CAKI-1 renal; 2.58 µM in the experiment on M19-MEL melanoma; 4.05 µM in the experiment with MOLT-4 leukemia; 2.5 µM in the experiment with NCI-H226 lung; 1.69 µM in the experiment with NCI-H460 lung. Moreover, the TGI in the experiment with SK-OV-3 ovarian turned out to be 11.8 µM; in the experiment on SNB-78 CNS it was 4.71 µM; in the experiment on UO-31 renal, 11.9 µM.
As for `O=C(Nc1ccccc1Cl)c1ccc([N+](=O)[O-])cc1`, the TGI with A549 NSCLC, in the experiment with CAKI-1 renal, with M14 melanoma, in the experiment on M19-MEL melanoma, in the experiment with MOLT-4 leukemia and in the experiment with NCI-H226 lung was more than 100 µM throughout. Also, the TGI with NCI-H460 lung, in the experiment on SK-OV-3 ovarian, in the experiment with SNB-78 CNS and with UO-31 renal was more than 100 µM throughout.
On to `Cc1c2oc3c(C)ccc(C(=O)NC4C(=O)NC(C(C)C)C(=O)N5CC(O)CC5C(=O)N(C)CC(=O)N(C)C(C(C)C)C(=O)OC4C)c3nc-2c(C(=O)NC2C(=O)NC(C(C)C)C(=O)N3CC(O)CC3C(=O)N(C)CC(=O)N(C)C(C(C)C)C(=O)OC2C)c(N)c1=O` (centres undefined) (I: TV[Hyp][Sar][NMeV] / II: TV[Hyp][Sar][NMeV]; ester I:1-I:C, II:1-II:C; linker I:N-II:N via Actinocin(9to1); configuration not given here), for which the TGI with A549 NSCLC, with CAKI-1 renal, with HS 578T breast, with M14 melanoma, with MOLT-4 leukemia and in the experiment on NCI-H226 lung was more than 1 µM each time. The TGI in the experiment on NCI-H460 lung, in the experiment with SK-OV-3 ovarian and in the experiment on UO-31 renal was more than 1 µM in each case.
Turning to `COc1ccc(NC(C(N)=O)c2cc3cc(Br)ccc3nc2Cl)cc1` (centres undefined), the TGI in the experiment on A549 NSCLC is more than 100 µM; in the experiment with CAKI-1 renal it was more than 100 µM; in the experiment on HS 578T breast, more than 100 µM; in the experiment with M14 melanoma, more than 100 µM; in the experiment on MOLT-4 leukemia it was 62.9 µM; with NCI-H226 lung it was more than 100 µM. Besides, the TGI in the experiment on NCI-H460 lung, in the experiment on SK-OV-3 ovarian and in the experiment on UO-31 renal was more than 100 µM each time.
As to `CCSc1nc(=S)n(-c2ccccc2)c(C)c1C(C)=O`, the TGI in the experiment with A549 NSCLC, in the experiment with CAKI-1 renal, in the experiment on HS 578T breast, in the experiment on M14 melanoma, in the experiment with MOLT-4 leukemia and in the experiment on NCI-H226 lung was more than 100 µM each time. The TGI in the experiment on NCI-H460 lung, in the experiment with SK-OV-3 ovarian and in the experiment on UO-31 renal was more than 100 µM each time.
In the case of `COc1c(Br)cc2ccccc2c1-c1c(OC)c(Br)cc2ccccc12`, the TGI in the experiment with A549 NSCLC, with CAKI-1 renal, with HS 578T breast, in the experiment with M14 melanoma, with MOLT-4 leukemia and in the experiment on NCI-H226 lung was more than 100 µM each time. Moreover, the TGI with NCI-H460 lung, in the experiment with SK-OV-3 ovarian and in the experiment with UO-31 renal was more than 100 µM in each case.
As for `c1ccc(Nc2nn3c(CCCCCCCCc4nnc5sc(Nc6ccccc6)nn45)nnc3s2)cc1`, the TGI with A549 NSCLC is more than 100 µM; in the experiment on CAKI-1 renal, more than 100 µM; with HS 578T breast it was more than 100 µM; with M14 melanoma it was 35.2 µM; with MOLT-4 leukemia it was 41.7 µM; with NCI-H226 lung it was more than 100 µM. Moreover, the TGI was more than 100 µM in the experiment with NCI-H460 lung, more than 100 µM in the experiment with SK-OV-3 ovarian and 69.9 µM with UO-31 renal.
On to `NC(=O)CC(N)C(=O)NC(Cc1ccccc1)C(=O)NC(Cc1ccccc1)NC(=O)C(Cc1c[nH]c2ccccc12)C(=O)O` (centres undefined), for which the TGI in the experiment on A549 NSCLC, in the experiment with CAKI-1 renal, in the experiment on HS 578T breast, in the experiment with M14 melanoma, with MOLT-4 leukemia and in the experiment on NCI-H226 lung was more than 100 µM in each case. The TGI in the experiment with NCI-H460 lung, with SK-OV-3 ovarian and in the experiment on UO-31 renal was more than 100 µM throughout.
Consider `CCOC(=O)/C=C(\C(=O)OCC)n1cc(Cl)c(=O)n(CC(=O)OCC)c1=O`, for which the TGI in the experiment on A549 NSCLC is 45.8 µM; with CAKI-1 renal, 5.27 µM; in the experiment with HS 578T breast it was more than 100 µM; in the experiment with M14 melanoma, 10.2 µM; in the experiment on MOLT-4 leukemia, 6.05 µM; in the experiment on NCI-H226 lung, 31.7 µM. In addition, the TGI with NCI-H460 lung was found to be 51.1 µM; in the experiment with SK-OV-3 ovarian it was 33.9 µM; in the experiment on UO-31 renal, 3.27 µM.
As for `COC(=O)c1c(C)cccc1C1CN=NC12Cc1cc(C)cc(C)c1C2=O` (centres undefined), the TGI with A549 NSCLC, with CAKI-1 renal, in the experiment on HS 578T breast, in the experiment with M14 melanoma, in the experiment on MOLT-4 leukemia and in the experiment on NCI-H226 lung was more than 100 µM each time. Moreover, the TGI in the experiment on NCI-H460 lung, with SK-OV-3 ovarian and with UO-31 renal was more than 100 µM each time.
Regarding `Cc1ccc(N=Nc2c(O)ccc3cc(S(=O)(=O)O)ccc23)cc1`, the TGI with A549 NSCLC is more than 100 µM; in the experiment with CAKI-1 renal, > 100 µM and 80.8 µM; in the experiment with HS 578T breast it was more than 100 µM; in the experiment with M14 melanoma, more than 100 µM; in the experiment with MOLT-4 leukemia, more than 100 µM; with NCI-H226 lung it was more than 100 µM. Further, the TGI in the experiment on NCI-H460 lung, with SK-OV-3 ovarian and in the experiment with UO-31 renal was more than 100 µM each time.
